In patent US20250262336A1, “[177LU] LUTETIUM-PSMA I&T COMPOSITION AND DOSIMETRY, KIT, METHOD OF MAKING, AND METHOD OF USING THEREOF” (Curium US LLC, priority 2023, published 2025):

Test: Cycle 1 biodistribution: SPECT/CT time-activity curves (fraction of injected activity)
Format: in vivo, human
Conditions: excluding patient 42-030
Method: This Example presents the biodistribution, dosimetry, and pharmacokinetics (PK) results of a PK/Dosimetry sub-study performed as part of a Phase III trial. Twenty-seven (27) patients were administered a target activity of 7.4±10% GBq of ^177Lu-PSMA-I&T and underwent single photon emission computed tomography (SPECT)/computed tomography (CT) imaging at four timepoints (4 h, 24 h, 48 h, and 168 h). Image data was analysed to compute time-activity curves (TACs) and subsequently time-integrated activity coefficients (TIACs) in each organ of interest and in organs showing appreciable and meaningful ^177Lu-PSMA-I&T activity. Organ Level Internal Dose Assessment (OLINDA 2.2.3) was used to compute organ and whole body absorbed radiation doses for each patient.
All participating sites underwent a rigorous site setup process during which all dose calibrators, scanners, and gamma counters used in the sub-study were calibrated. Sites were allowed to enroll patients in the sub-study only after the completion and approval of all site setup processes by Invicro. Patients underwent SPECT/CT imaging, with anatomical coverage typically extending from the salivary glands to the pelvis, following the administration of a targeted 7.4±10% GBq of ^177Lu-PSMA-I&T at cycle 1. SPECT/CT imaging was performed at four timepoints: 4 h, 24 h, 48 h, and 168 h post-injection. Additionally, a subset of patients imaged at Cycle 1 (16 out of 27), were also imaged at Cycle 3 (Table 2).
Volume of interest (VOI) (kidneys, bladder, liver, lumbar vertebrae L2-L4, lacrimal glands, salivary glands [parotid and submandibular glands], and whole body) were delineated on each dataset by a trained image analyst. […]
Clearance of the radiopharmaceutical was derived from a data-appropriate fit of each organ's TAC. […] TIACs were calculated through analytical integration of the curve fit extrapolated to infinity. […] The remainder activity was determined by subtracting the cumulative organ TIACs from the whole body TIAC. […]

O=C(O)CC[C@H](NC(=O)N[C@@H](CCCCNC(=O)CCCCCCC(=O)NCCCC[C@@H](NC(=O)[C@@H](Cc1ccccc1)NC(=O)[C@@H](Cc1ccc(O)c(I)c1)NC(=O)CC[C@H](C(=O)O)N1CCN(CC(=O)O)CCN(CC(=O)O)CCN(CC(=O)O)CC1)C(=O)O)C(=O)O)C(=O)O [^177Lu-PSMA-I&T, (3S,7 S,26R,29R,32R,37R)-29-benzyl-32-(4-hydroxy-3-iodobenzyl)-5,13,20,28,31,34-hexaoxo-37-(4,7,10-tris(carboxymethyl)-1,4,7,10-tetraazacyclododecan-1-yl)-4,6,12,21,27,30,33-heptaazaheptatriacontane-1,3,7,26,37-pentacarboxylic acid; lutetium-177 (III), metal not drawn]
whole body activity retention at 4 h, max: 78%
whole body activity retention at 4 h, min: 24%
whole body mean activity retention at 4 h: 44%±13%
